Data reported in US12661373B2, “Electrochemically activated salt solution” (AZAD Pharma AG, priority 2018, dated 2026).

Experiments:
Assay type in all cases: cell-based
Conditions in all cases: ACV 100 μmol/l, MOI 0.01, titer 24 hpi
HSV-1 strain Kupka [1] = assay: In vitro antiviral activity, treatment of Vero cells, plaque assay
Method: (§1) • A. Vero cells were seeded in 24-well plates and treated with dilutions of the ECAS 2 Dil.1:1 and Dil.1:2, either: • I. 24 hours before the infection; • II. 2 hours before the infection; • III. during the infection; • IV. 2 hours post infection; or • V. 6 hours post infection.
(§2) The cells were infected with the HSV-1 strains Kupka and ANGpath at a multiplicity of infection (MOI) of 0.01. The cells were collected 24 hours post infection (hpi) and the virus titer was determined by plaque assay. Briefly, the samples were serially diluted and plated onto one-day Vero cell-monolayers in 24- or 6-well tissue plates in duplicates. Afterwards, the cells were overlaid with 1% methylcellulose in normal growth media. 5 days post infection, the cells were fixed and stained with 2% crystal violet in 20% ethanol, and the individual plaques were counted to determine the virus titer in each sample. Samples without treatment (Mock, negative control) and samples treated with ACV (Acyclovir, 100 μmol/l, reference control) were handled in the same manner. The test was performed in two independent experiments, where each of the samples was tested in parallel wells. • B. The HSV-1 strains Kupka and ANGpath, were incubated at a MOI of 0.01 with dilutions of the ECAS 2 either Dil.1:1 or Dil.1:2, in a final volume of 100 μl for either: • I. 12 hours; • II. 8 hours; • III. 6 hours; or • IV. 2 hours.

HSV-1 strain ANGpath [2] = assay: as above
Method: as §1, §2

HSV-1 strain Kupka [3] = assay: In vitro antiviral activity, pre-incubation of virus before infection of Vero cells, plaque assay
Method: as §2
(§3) Then cells, which had been seeded in 24-well plates 24 hours before the infection, were infected with the above mentioned pre-incubated viruses. 24 hpi the cells were collected and the virus titer was determined by a plaque assay, as described above. Samples without treatment (Mock, negative control) and samples treated with Acyclovir (100 μmol/l as reference control) were handled in the same manner. The test was performed in two independent experiments, where each of the samples was tested in parallel wells.

HSV-1 strain ANGpath [4] = assay: as above
Method: as §2, §3

[5] = cells treated 2 h before infection
[6] = cells treated 24 h before infection
[7] = virus incubated 2 h before infection
[8] = virus incubated 6 h before infection
[9] = virus incubated 8 h before infection
[10] = virus incubated 12 h before infection

Nc1nc2c(ncn2COCCO)c(=O)[nH]1 [ACV, Acyclovir]
Reduction in viral titer (HSV-1 strain Kupka [1]; cells treated 2 hpi): 4.52 log10
Reduction in viral titer (HSV-1 strain Kupka [1]; cells treated 6 hpi): 3.43 log10
Reduction in viral titer (HSV-1 strain Kupka [1]; [5]): 1.96 log10
Reduction in viral titer (HSV-1 strain Kupka [1]; [6]): 1.96 log10
Reduction in viral titer (HSV-1 strain Kupka [1]; cells treated during infection): 3.69 log10
Reduction in viral titer (HSV-1 strain ANGpath [2]; cells treated 2 hpi): 2.81 log10
Reduction in viral titer (HSV-1 strain ANGpath [2]; cells treated 6 hpi): 2.38 log10
Reduction in viral titer (HSV-1 strain ANGpath [2]; [5]): 0.61 log10
Reduction in viral titer (HSV-1 strain ANGpath [2]; [6]): 0.54 log10
Reduction in viral titer (HSV-1 strain ANGpath [2]; cells treated during infection): 2.45 log10
Reduction in viral titer (HSV-1 strain Kupka [3]; [7]): 4.62 log10
Reduction in viral titer (HSV-1 strain Kupka [3]; [8]): 3.55 log10
Reduction in viral titer (HSV-1 strain Kupka [3]; [9]): 5.17 log10
Reduction in viral titer (HSV-1 strain Kupka [3]; [10]): 3.15 log10
Reduction in viral titer (HSV-1 strain ANGpath [4]; [7]): 2.85 log10
Reduction in viral titer (HSV-1 strain ANGpath [4]; [8]): 2.59 log10
Reduction in viral titer (HSV-1 strain ANGpath [4]; [9]): 2.97 log10
Reduction in viral titer (HSV-1 strain ANGpath [4]; [10]): 2.56 log10
